SMILES strings stand for the structures.

What all share (type): in vitro ADME
A short description of series [1]: Metabolic stability in hepatocytes, CD-1 mice. Conditions: mouse, cryopreserved hepatocytes, CD-1 mice hepatocytes. As to the method: (§1) Metabolic stabilities of assay compound in hepatocytes of CD-1 mice, SD rats, beagle dogs, cynomolgus monkeys, and human were assayed, respectively.
(§2) Several 96-well sample precipitation plates were prepared and named T0, T15, T30, T60, T90, T120, T0-MC, T120-MC and blank substrates, respectively. The recovery medium and incubation medium were taken out in advance and placed in a 37° C. water bath for pre-heating. Cryopreserved hepatocytes were removed from the liquid nitrogen tank and immediately immersed in a 37° C. water bath (approximately 90 seconds). After the cryopreserved hepatocytes had thawed and loosened, they were poured into a centrifuge tube containing 40 mL of recovery medium, and the tube was gently inverted to allow the cells to be resuspended in the recovery medium. The cells were centrifuged at 100×g at room temperature for 5 min, and the supernatant was removed. The hepatocytes were resuspended in an appropriate volume of incubation medium, and the cell viability was calculated by Trypan Blue staining method. 198 μL of hepatocyte suspension (0.51×10^6 cells/mL) was added to the preheated incubation plate. For the culture medium control group, 198 μL of hepatocyte-free incubation medium was added to T0-MC and T120-MC incubation plate. All incubation plates were pre-incubated in a 37° C. incubator for 10 minutes. Then 2 μL of working solutions of the assay sample and the control compound were added, respectively, and the mixture was mixed well. The incubation plate was immediately put into the shaker in the incubator, and the reaction was initiated while starting the timer. For each time point of each compound, 2 duplicate samples were prepared. The incubation conditions were 37° C., saturated humidity, and 5% CO2. […] All samples were mixed well and analyzed by LC/MS/MS.

A short description of series [2]: Metabolic stability in hepatocytes, SD rats. The conditions noted are these: rat, cryopreserved hepatocytes. As to the method:
as §1, §2

Series [3] in a line: Metabolic stability in hepatocytes, human. The conditions noted are these: cryopreserved hepatocytes. The method, then:
as §1, §2

Series [4] in a line: Stability in plasma, CD-1 mice. Conditions: CD-1 mice plasma, 2 μM, 37° C. The method, then:
Stabilities of the assay compound in plasma of CD-1 mice and human were assayed, respectively. Cryopreserved plasma was thawed for 10 to 20 min. After the plasma was completely thawed, it was placed in a centrifuge and centrifuged at 3220×g for 5 min to remove any suspended matter and sediment in the plasma. 96-well incubation plates were prepared and named T0, T10, T30, T60, T120, respectively. 98 μL of blank plasmas of mouse, rat, canine, monkey and human were added to the corresponding incubation plates, then 2 μL of working solutions of the compound or the control compound were added to the corresponding plates in duplicate. All samples were incubated in a 37° C. water bath. The final incubation concentrations of the compound and the control compounds bisacodyl, enalapril maleate, procaine and probanthine were 2 μM, and the final organic phase content was 2.0%. At the end of incubation for each time point, the corresponding incubation plate was removed and 400 μL of a solution of 200 ng/mL of tolbutamide and labetalol in acetonitrile was added to each corresponding sample well to precipitate the protein. All sample plates were sealed and shaken well, and then centrifuged at 3220×g for 20 minutes. 50 μL of supernatant was taken out and diluted in 100 μL of ultrapure water. All samples were mixed well and then analyzed by LC/MS/MS.

Series [5] can be described thus: Stability in whole blood, SD rats. The conditions noted are these: 5 μM, 37° C. As to the method: Stabilities of the assay compound in whole blood of CD-1 mice, SD rats, beagle dogs and cynomolgus monkeys were assayed, respectively. On the day of the assay or the day before the assay, fresh whole blood from CD-1 mice, SD rats, beagle dogs, and cynomolgus monkeys was collected using anticoagulant EDTA-K2. Prior to the start of the assay, the whole blood was mixed with PBS in 1:1 (v: v) and the mixture was preheated in a 37° C. water bath for 10 to 20 minutes. 96-well incubation plates were prepared and named T0, T30, T60, […], respectively. In the corresponding incubation plates, including T0, T30, T60 and […] incubation plates, 2 μL of working solutions of the compound or the control compound were mixed with 98 μL of blank whole blood of mice, rats, canines, monkeys and human in duplicate. All samples were incubated in a 37° C. water bath. The final incubation concentration of the compound was 5 μM and the final incubation concentration of the control compound was 2 μM. At the end of incubation for each time point, the corresponding incubation plate was removed and 100 μL of ultrapure water was immediately added to the corresponding sample wells, and mixed well. 800 μL of a solution of 200 ng/mL tolbutamide and labetalol in acetonitrile was added to precipitate the protein. […] 150 μL of supernatant was taken out and analyzed by LC/MS/MS.

Series [6] can be described thus: Protein binding rate in plasma by equilibrium dialysis, CD-1 mice. As to the method: Protein binding rate of the assay compound in plasma of CD-1 mice, SD rats, beagle dogs, cynomolgus monkeys and human was determined by equilibrium dialysis.
Plasma samples with a compound concentration of 2 μM were prepared using plasma of the above five species, placed in a 96-well equilibrium dialysis device, and dialyzed with phosphate buffer solution at 37±1° C. for 4 hours. Warfarin was used as the control compound in this assay. The concentrations of the assay compound in plasma and dialysis buffer were determined by LC-MS/MS method.
(In equilibrium dialysis free small molecules cross a membrane that holds back macromolecules.)

Series [7] in a line: Protein binding rate in plasma by equilibrium dialysis, cynomolgus monkeys. The conditions noted are these: 2 μM, equilibrium dialysis 4 hours. The method, then: Protein binding rate of the assay compound in plasma of CD-1 mice, SD rats, beagle dogs, cynomolgus monkeys and human was determined by equilibrium dialysis. Plasma samples with a compound concentration of 2 μM were prepared using plasma of the above five species, placed in a 96-well equilibrium dialysis device, and dialyzed with phosphate buffer solution at 37±1° C. for 4 hours. Warfarin was used as the control compound in this assay. The concentrations of the assay compound in plasma and dialysis buffer were determined by LC-MS/MS method.

The half-life is the time needed for the level to fall by half in the phase considered. A high value points to slow loss. On to `C=C(F)C(=O)N1CCN(c2nc(OC[C@@]34CCCN3C[C@H](F)C4)nc3c2CO[C@H](c2c(F)c(N)cc(C)c2C(F)(F)F)C3)C[C@@H]1CC#N` [Compound of formula (I)], for which the half-life at 1 μM in series [1] was 9.5 min; in series [2], 20.6 min; in series [3] it was 99.5 min. Moreover, the hepatocyte CLint at 1 μM in series [1] (read-out: CLint(hep)) was 146 µL/min/1e6 cells; in series [2] (read-out: CLint(hep)), 67.4 µL/min/1e6 cells; in series [3] (read-out: CLint(hep)), 13.9 µL/min/1e6 cells. Also, the CLint scaled at 1 μM in series [1] (read-out: CLint(liver)) was found to be 1740 mL/min/kg; in series [2] (read-out: CLint(liver)), 315 mL/min/kg; in series [3] (read-out: CLint(liver)), 38.7 mL/min/kg. For the same compound, the “Detection of assay compound content within 120 min” value in series [4] was 94%. Also, the “Detection of assay compound content within 240 min” value in series [5] is recorded as 115%. Further, in series [6] (CD-1, plasma, value used in the CD mouse PK table, read-out: Plasma protein unbound rate PPB (Unbound %)), the fraction unbound at 4 h, 2 μM amounted to 0.12. Further, the “Protein unbound rate (%)” value was 1.5% in series [6] (CD-1 mice plasma, 2 μM, equilibrium dialysis 4 hours) and 7.8% in series [7].

The record behind these values is patent US20250129102A1, “CRYSTAL FORM OF PYRIMIDINE HETEROCYCLIC COMPOUND AND PREPARATION METHOD THEREFOR” (D3 Bio (Wuxi) Co., Ltd., priority 2021, published 2025).
